The results in this text go back to US20240408055A1 (priority 2021, published 2024).

One may read the IC50 as the concentration that gives 50% inhibition.

Values after ≈ are worked out from the molar mass of the structure shown.

Series [1] has as its system SARS-CoV-2 pseudovirus Wuhan D614. Nature of the series: microbe, parasite or virus in culture. It is filed as cell-based.
The subject of series [2] is SARS-CoV-2 pseudovirus South Africa B.1.351. Put plainly: microbe, parasite or virus in culture. It counts as cell-based.
For series [3], the system named is SARS-CoV-2 pseudovirus Brazil P.1. Put plainly: microbe, parasite or virus in culture. It counts as cell-based.
In series [4] the test system is SARS-CoV-2 pseudovirus India B.1.617.1. Nature of the series: microbe, parasite or virus in culture. It is filed as cell-based.
Series [5] has as its system SARS-CoV-2 pseudovirus Uganda A23.1. Put plainly: microbe, parasite or virus in culture. It is filed as cell-based.
For series [6], the system named is SARS-CoV-2 pseudovirus Nigeria B.1.525. Put plainly: microbe, parasite or virus in culture. It is filed as cell-based.
For series [7], the system named is SARS-CoV-2 pseudovirus California B.1.429. Nature of the series: microbe, parasite or virus in culture. It is filed as cell-based.
Series [8] has as its system SARS-CoV-2 pseudovirus New York B.1.526. Nature of the series: microbe, parasite or virus in culture. It counts as cell-based.
A further series concerns SARS-CoV-2. The note with it: mouse, in vivo.
Another series has as its target T1, Cathepsin B (Homo sapiens, UniProt P07858).
T1 construct: purchased BPS BIOSCIENCE 79590
Put plainly: Cathepsin B Inhibitor Screening Assay Kit (fluorescence). It counts as biochemical. The note with it: Cathepsin B 0.4 ng/group, 50 μL reaction; read-out: half maximal effective concentration (EC50) against Cathepsin B protease activity. On the procedure: In the biochemical test, the Cathepsin B Fluorescence Assay Kit (Cathepsin B Inhibitor Screening Assay Kit, BPS BIOSCIENCE, 79590) was used in the test method. According to the manufacturer's manual, the inhibition activity was measured through continuous kinetic analysis, the samples containing Cathepsin B were reacted with a fluorescent substrate in the mixing, and the measured fluorescence (λex=360 nm, λem=460 nm) readings were used. The E64 protease inhibitor was used as a positive control. The experiment was conducted in a 50 μL reaction system, with a single reaction dose of Cathepsin B at 0.4 ng/group, the E64 protease inhibitor were used as a positive control. The inhibitory impact of various concentrations of Anisomelic acid (0.5, 1, 2.5, 5, 10, 20, and 30 μM) against Cathepsin B protease activity was examined. The significant inhibition of Anisomelic acid against Cathepsin B protease activity was found in a dose-dependent manner.

A further series deals with Cathepsin L (Homo sapiens, UniProt P07711). Put plainly: Cathepsin L Inhibitor Screening Assay Kit (fluorescence). Conditions: Cathepsin L 0.4 ng/group, 50 μL reaction; read-out: half maximal effective concentration (EC50) against Cathepsin L protease activity. It is filed as biochemical. How it is done:
The Cathepsin L Fluorescence Assay Kit (Cathepsin L Inhibitor Screening Assay Kit, BPS BIOSCIENCE, 79591) was used in the biochemical test method. According to the manufacturer's manual, the inhibition activity was measured through continuous kinetic analysis, the samples containing Cathepsin L were reacted with a fluorescent substrate in mixing, and the measured fluorescence (λex=360 nm, λem=460 nm) readings were used. The E64 protease inhibitor was used as a positive control. The experiment was conducted in a 50 μL reaction system, with a single reaction dose of Cathepsin L at 0.4 ng/group, the E64 was used as the positive control of inhibition. The inhibitory impact of various concentrations of Anisomelic acid (0.5, 1, 2.5, 5, 10, 20, and 30 μM) against Cathepsin L protease activity was examined. As shown in the right graph of FIG. 5B, the significant inhibition of Anisomelic acid against Cathepsin L protease activity was found in a dose-dependent manner.

For another series, the target named is T2, TMPRSS2 (Homo sapiens, UniProt O15393).
T2 construct: purchased BPS BIOSCIENCE 78083
Nature of the series: TMPRSS2 Fluorogenic Assay Kit. It counts as biochemical. The note with it: TMPRSS2 150 ng/group, 50 μL reaction; read-out: half maximal effective concentration (EC50) against TMPRSS2 protease activity. How it is done:
In the biochemical experiments, TMPRSS2 Fluorescence Assay Kit (TMPRSS2 Fluorogenic Assay Kit, BPS BIOSCIENCE, 78083) was used in the test method. Inhibitory activity was measured by sequential kinetic analysis according to the manufacturer's manual, the inhibition activity was measured by using continuous kinetic analysis, the samples containing TMPRSS2 were reacted with a fluorescent substrate in a mixing, and a fluorescence (λex=383 nm, λem=455 nm) readings were used. Camostat protease inhibitor was used as a positive control. The experiment was performed in a 50 μL reaction system, the single reaction dose of TMPRSS2 was 150 ng/group, and 10 μM Camostat protease inhibitor was used as a positive control. The effect of Anisomelic acid on the inhibition of TMPRSS2 protease activity was examined by tested various concentrations of Anisomelic acid (0.5, 1, 2.5, 5, 10, 20 and 30 μM). A significant inhibition of Anisomelic acid against TMPRSS2 protease activity was found in a dose-dependent manner.

Series [9] concerns the target T3, SARS-CoV-2 main protease (Mpro) (Severe acute respiratory syndrome coronavirus 2, UniProt P0DTD1).
T3 construct: a recombinant 2019-nCoV 3CL protease protein (Elabscience bio Inc) was used; purchased Elabscience bio Inc
It counts as biochemical. Conditions: read-out: half maximal effective concentration (EC50) against Mpro activity.

Where [10] appears, read: Severe acute respiratory syndrome-related coronavirus, Huh-7, read-out: IC50 inhibiting infection.

Chain of Cathepsin L (P07711 114-333): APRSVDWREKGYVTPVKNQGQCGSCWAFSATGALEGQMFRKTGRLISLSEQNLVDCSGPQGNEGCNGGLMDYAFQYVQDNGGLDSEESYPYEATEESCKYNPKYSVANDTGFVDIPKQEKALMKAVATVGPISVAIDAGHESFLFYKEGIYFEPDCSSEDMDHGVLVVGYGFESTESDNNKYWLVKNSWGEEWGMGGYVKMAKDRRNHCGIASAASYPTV
T2 sequence (O15393 whole entry): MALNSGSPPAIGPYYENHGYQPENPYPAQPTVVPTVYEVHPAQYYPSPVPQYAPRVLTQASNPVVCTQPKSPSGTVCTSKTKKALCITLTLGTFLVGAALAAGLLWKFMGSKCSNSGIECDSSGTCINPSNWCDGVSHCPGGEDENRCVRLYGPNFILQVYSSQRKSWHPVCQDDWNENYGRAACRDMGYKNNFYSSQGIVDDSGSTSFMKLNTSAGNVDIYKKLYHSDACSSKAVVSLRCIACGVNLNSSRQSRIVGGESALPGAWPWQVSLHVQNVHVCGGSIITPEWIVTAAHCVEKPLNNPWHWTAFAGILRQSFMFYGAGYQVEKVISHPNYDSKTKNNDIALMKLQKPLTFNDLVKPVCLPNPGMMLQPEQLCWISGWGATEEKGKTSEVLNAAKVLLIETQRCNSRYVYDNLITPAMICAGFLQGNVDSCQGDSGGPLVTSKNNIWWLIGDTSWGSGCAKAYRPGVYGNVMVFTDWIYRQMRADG

Take `CCC(CC)COC(=O)[C@H](C)N[P@](=O)(OC[C@H]1O[C@@](C#N)(c2ccc3c(N)ncnn23)[C@H](O)[C@@H]1O)Oc1ccccc1` [Remdesivir, reference compound]: the IC50 turned out to be 2.96 µg/mL (≈ 4.91 µM) in series [1] (setting [10]); 27.2 µg/mL (≈ 45.2 µM) in series [2] (setting [10]); 13.8 µg/mL (≈ 22.8 µM) in series [3] (setting [10]); 11.9 µg/mL (≈ 19.8 µM) in [4] (setting [10]); 7.63 µg/mL (≈ 12.7 µM) in [5] (setting [10]); 10.3 µg/mL (≈ 17.1 µM) in series [6] (setting [10]). Also, the concentration for half-maximal inhibition (IC50) in [7] (setting [10]) amounted to 15.9 µg/mL (≈ 26.4 µM); in [8] (setting [10]) it was 15 µg/mL (≈ 24.9 µM). The “changes in body weight of the mice” value in the series on SARS-CoV-2 is given as “basically similar”.

For the molecule `C=C1C(=O)O[C@@H]2/C=C(\C)C[C@H]3C=C(CC/C=C(\C)CC[C@@H]12)C(=O)O3` [Ovatodiolide], the IC50 inhibiting infection in series [1] worked out at 4.08 µg/mL (≈ 12.4 µM); in [2], 15.42 µg/mL (≈ 47 µM); in series [3], 7.00 µg/mL (≈ 21.3 µM); in [4], 15.27 µg/mL (≈ 46.5 µM); in series [5], 6.72 µg/mL (≈ 20.5 µM); in series [6], 8.24 µg/mL (≈ 25.1 µM). The IC50 inhibiting infection was found to be 12.09 µg/mL (≈ 36.8 µM) in series [7] and 11.35 µg/mL (≈ 34.6 µM) in series [8]. Further, the “changes in body weight of the mice” value in the series on SARS-CoV-2 is listed as “basically similar”.

For the molecule `C=C1C(=O)OC2/C=C(/C)CC/C=C(\C(=O)O)CC/C=C(\C)CCC12` (centres unmarked) [Anisomelic acid], the EC50 on Cathepsin B stood at 4.23 µM; at Cathepsin L it was 3.69 µM; on TMPRSS2 it was 6.51 µM; in [9] it was 9.77 µM. In addition, the IC50 inhibiting infection turned out to be 3.50 µg/mL (≈ 10.6 µM) in series [1]; 27.55 µg/mL (≈ 83.4 µM) in series [2]; 0.12 µg/mL (≈ 0.363 µM) in series [3]; 10.09 µg/mL (≈ 30.5 µM) in series [4]; 15.53 µg/mL (≈ 47 µM) in series [5]; 14.36 µg/mL (≈ 43.5 µM) in [6]. Besides, the IC50 inhibiting infection in series [7] was determined as 8.47 µg/mL (≈ 25.6 µM); in series [8], 8.86 µg/mL (≈ 26.8 µM). Also, in the series with SARS-CoV-2, the “changes in body weight of the mice” value was “basically similar”. Also, in the series with SARS-CoV-2, the “changes in the titers of coronavirus infection in the lungs of mice” value is “better prevention and control effects”.
